In US4775676A, “Thiazolidine derivatives, process for their preparation and pharmaceutical compositions” (Chiesi Farmaceutici S.p.A., priority 1985, dated 1988):
Counter-ions that a name gives are not always drawn.

What was measured:
porcine gastric mucine = test: "In vitro" mucolytic activity (viscoelasticity of porcine gastric mucine); assay type: biochemical; conditions: 6% porcine gastric mucine, 25° C., 30 minutes, 0.075 Hz, versus control
Experimental: "In vitro" mucolytic activity
Control samples were similarly added with the vehicle only. After incubation at 25° C. for 30 minutes, the analysis of the rheologic characteristics was carried out by means of Contraves Low-Shear 30 sinus viscosimeter provided with an oscillating device for the study of the viscoelasticity. The dynamic measurements of the viscoelasticity were carried out at a single frequency (0.075 Hz), using an appropriate concentrical cylinder measurement system, particularly suited for bronchial mucus (Contraves MS-LS 1-1).
The rheogramm was recorded on X/Y Rikadenki 11T recorder and the […] determination was carried out by means of vectorial calculation.
The percent decreases versus control samples, reported in Table 1, were determined from the means of the values of said parameters (at least 7 replications per sample).

[1] = Toxicity after single administration; assay type: in vivo; conditions: mouse, in vivo, po, mice, p.o., death-rate after 7 days, read-out: Acute toxicity LD50 approx.
Experimental: (§1) Toxicity after single administration
(§2) IVA:NMRI (SPF) mice, fasted for 18 hours before treatment with water ad libitum, were used. The compounds, dissolved or suspended in a 0.2% Tween® 80 aqueous solution, were administered orally, at constant concentration (10%). According to the death-rate observed after 7 days from treatment, the approximate LD50 values, reported in Table 1, were interpolated on Probi ts chart.

mice = test: Toxicity after single administration; assay type: in vivo; conditions: p.o., death-rate after 7 days
Experimental: as §1, §2

respiratory tract = test: Mucosecretodynamic activity, "in vivo" fluorescein test; design: species or system male IVA-NMRI (SPF) mice; conditions: mice, p.o., 90 minutes before i.v. fluorescein, increase of fluorescein excretion; for ED50: Mus musculus, po
Experimental: Mucosecretodynamic activity
Male IVA-NMRI (SPF) mice, housed for at least 1 week under standard conditions, fasted (water ad libitum) for 18 hours before treatment, were used.
The compounds, dissolved or suspended in 20 ml/kg of a 0.2% Tween® 80 aqueous suspension, were administred orally 90 minutes before the intravenous injection of 1% (5 ml/kg) fluorescein. Animals treated p.o. with the only vehicle were used as a control group. After 30 minutes from the fluorescein injection the animals were killed and subjected to incannulation of the trachea. Then the respiratory tract was washed and the spectrophotometric dosage of the fluorescein was carried out against phosphate buffer on the so collected eluate, suitably diluted with phosphate buffer and centrifugated.
The amount of fluorescein was determined by means of a calibration curve prepared under the same experimental conditions and the excretion was expressed as ng/hour/10 g body weight. For each experimental session the percent increases of excretion versus controls were calculated.

Molecule | "in vitro" % decrease elasticity (G') (porcine gastric mucine) [%] | "in vitro" % decrease viscosity (.eta.) (porcine gastric mucine) [%] | LD50 at 168 h [1] [mg/kg] | ED50 (respiratory tract) [mg/kg] | further results
CC(=O)N[C@@H](CS)C(=O)O [N-acetyl-L-cysteine, N--acetyl-L-cysteine, reference compound] | 39 | 53 |  |  | 
CC(SCC(=O)N1CCSC1)C(=O)NCC(=O)O (centres unmarked) [Compound 9, 2-[2-[(3-thiazolidyl)carbonylmethylthio]-propionamide]acetic acid] | 21 | 40 | > 4000 |  | 
O=C(O)CCC(=O)N1CCSC1 [Compound 4, 4-oxo-4-(3-thiazolidyl)-butanoic acid] |  |  | ~4000 |  | 
O=C(O)CCC(=O)N1CCSC1 [Compound 10, 4-oxo-4-(3-thiazolidyl)butanoic acid sodium salt] |  |  |  |  | Acute toxicity LD50 approx. (mice; sodium salt, 10080 min): > 4000 mg/kg
N[C@@H](CSCC(=O)N1CCSC1)C(=O)O [Compound 8, 2-Amino-3-[[(3-thiazolidyl)-carbonylmethyl]thio]propionic acid] |  |  | > 4000 |  | 
4-methyl-2-[(3-thiazolidyl)carbonyl]-cyclohexane-carboxylic acid lysine salt [Compound 11] | 6 | 9 |  |  | Acute toxicity LD50 approx. (mice): > 4000 mg/kg; "in vivo" fluorescein test ED50 (respiratory tract): 300 mg/kg
O=C(CCC(=O)N1CCSC1)N1CCSC1 [Compound 7, 1,4-Bis-(3-thiazolidyl)-1,4-dioxo-butane] |  |  | ~3000 | ~750 | 
CCC1SCCN1C(=O)C1C2C=CC(C2)C1C(=O)O (centres unmarked) [Compound 2, 3-[3-[(2-Ethyl)-thiazolidine]carbonyl]-bicyclo-[2,2,1]-hepta-5-ene-2-carboxylic acid] | 33 | 58 | ~3000 |  | 
O=C(O)C1C2C=CC(C2)C1C(=O)N1CCSC1 (centres unmarked) [Compound 3, 3-[(3-thiazolidyl)-carbonyl]-bicyclo-[2,2,1]-hepta-5-ene-2-carboxylic acid] |  |  | ~1500 | 170 | 
CC1(C(=O)N2CCSC2)CCC(C(=O)O)C1(C)C (centres unmarked) [Compound 12, -3-[(3-thiazolidyl)-carbonyl]-2,2,3-trimethyl-cyclopentanecarboxylic acid lysine salt] | 13 | 0 | > 4000 | 310 | 
